Where two headings read alike, the source gives them in different places.
Experiments:
[1] = system: climbing behavior induced by apomorphine in mice; assay: Anti-climbing activity (climbing behavior induced by apomorphine in mice); format: in vivo, mice (dd strain male); conditions: Mus musculus, po
From the text: This activity was examined through the anticlimbing behavior test, i.e. the test for suppressing the climbing behavior induced by apomorphine in mice. A designed amount of the test compound was orally administered to several groups of dd strain male mice (bodyweight, 20 to 25 g; one group, 5 mice), and each of the animals was charged in an individual column cage of 12 cm in diameter and 14 cm in height having metal poles (each pole, 2 mm in diameter) vertically installed and arranged along the periphery with intervals of 1 cm. […]
0 All the paws were on the floor
1 Only forepaws seized the pole of the cage
2 All the paws seized the pole of the cage;
climbing behavior observed discontinu-
3 Continuous climbing behavior observed

[2] = target: T1, dopamine D2 receptor (Bos taurus, UniProt P20288); assay: Dopamine D2 receptor binding assay (displacement of [3H] spiperone, membrane fractions of corpus striatum); set-up: species or system bovine
T1 construct: from tissue; host or cells: bovine corpus striatum, washed membrane fractions
Protocol: Fresh corpus striatum taken out from bovine brain was homogenized in a 20-fold dilution of Tris-HCl buffer solution (pH, 7.4; 0.05 M) and centrifuged (50,000×g) for 10 minutes to give the membrane fractions, which were washed with the same volume of the buffer solution twice to give the membrane fractions for assay.
Number of bindings specific to the D2 receptor in [^3 H] spiperone in a designed concentration of the test compound was measured according to the following equation and the IC50 and Ki was determined thereon on the basis of a hill plot: [formula] l: concentration of [^3 H] spiperone on assay KD : dissociation constant of [^3 H] spiperone

[3] = system: 5-HT2 receptors; assay: Anti-head twitching activity (anti-5-HT2 activity; 5-methoxytryptamine-induced head twitches in mice); format: in vivo, mice (dd strain male); conditions: Mus musculus, po, nialamide 30 mg/kg i.p., 5-MT 2.5 mg/kg i.v., head twitches for 3 minutes
Protocol: It is known that the efficacy on the negative symptom can be evaluated through anti-5-hydroxytryptamine 2 (5-HT2) activity. […] Based on the above knowledges, test for measurement of head twitches in mice was carried out for evaluation of the anti-5-HT2 activity.

[4] = 1 hr, apomorphine 1.0 mg/kg s.c., mice, read-out: ED50 (p.o.) 1 hr

T1 sequence (P20288 whole entry): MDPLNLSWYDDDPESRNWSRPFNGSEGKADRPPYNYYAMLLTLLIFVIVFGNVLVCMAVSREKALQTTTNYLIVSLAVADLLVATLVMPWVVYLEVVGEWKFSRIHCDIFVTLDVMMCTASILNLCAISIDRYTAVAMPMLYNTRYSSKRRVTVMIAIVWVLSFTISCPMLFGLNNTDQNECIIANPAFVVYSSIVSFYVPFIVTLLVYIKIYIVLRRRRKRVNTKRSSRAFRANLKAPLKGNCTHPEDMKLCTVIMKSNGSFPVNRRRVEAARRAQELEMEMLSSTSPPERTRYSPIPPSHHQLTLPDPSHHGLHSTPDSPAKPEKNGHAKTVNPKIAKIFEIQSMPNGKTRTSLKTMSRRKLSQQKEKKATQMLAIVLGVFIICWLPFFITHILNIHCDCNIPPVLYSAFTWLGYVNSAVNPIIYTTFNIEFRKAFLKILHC

| SMILES | ED50 [1, 4] [mg/kg] | ED50 ([1]; 4 hrs, apomorphine 1.0 mg/kg s.c., mice, read-out: ED50 (p.o.) 4 hrs) [mg/kg] | Ki ([2]; [3H] spiperone 1 nM, 37° C., 30 minutes, bovine corpus striatum membranes, read-out: Ki) [nM] | ED50 [3] [mg/kg] | ED50 ([1]; 1 h, read-out: ED50 (p.o.) 1 hr) [mg/kg] | ED50 ([1]; 4 h, read-out: ED50 (p.o.) 4 hrs) [mg/kg] | Ki [2] [nM] |
| --- | --- | --- | --- | --- | --- | --- | --- |
| O=C1C2CCCCC2C(=O)N1CCCCN1CCC(c2noc3cc(F)ccc23)CC1 (stereo not drawn) [Example 1, N-[4-{4-(6-Fluoro-1,2-benzisoxazol-3-yl)piperidinyl}butyl]cyclohexane-1,2-dicarboximide] | 0.92 | 2.3 | 0.37 | 0.3 to 1 |  |  |  |
| CN(C)CCCN1c2ccccc2Sc2ccc(Cl)cc21 [Chlorpromazine, 2-chloro-10-(3-dimethylaminopropyl)-phenothiazine] |  |  |  |  | 1.8 | 8.8 |  |
| O=C1CC2(CCCC2)CC(=O)N1CCCCN1CCN(c2nsc3ccccc23)CC1 [Tiaspirone, 8-[4-(3-benzisothiazolyl)-1-piperazinylbutyl]-8-azaspiro[4,5]decane-7,9-dione] | 9.4 |  |  | 4 |  |  | 0.5 |

— patent US4937249A, “Imide derivatives and their pharmaceutical use” (Sumitomo Pharmaceuticals Company, Limited, priority 1987, dated 1990)
